Laboratory results from patent US20240261474A1, “BIODEGRADABLE TISSUE SCAFFOLD WITH SECONDARY MATRIX TO HOST WEAKLY ADHERENT CELLS” (THE U.S.A., as represented by the Secretary, Department of …, priority 2021, published 2024).
Entries after “also recorded” stand apart in the source; their conditions may differ.

How the values were obtained:
Type in all cases: cell-based, human
iPSC-RPE [1] = test: Single-cell RNA sequencing; conditions: AGN 193109-, endo-IWR-1- and DMSO-treated cells
Procedure: Single-cell RNA sequencing was performed to confirm that the compounds changed cell transcriptome.

iPSC-RPE [2] = test: Hematoxylin and eosin staining, gross morphology of the monolayer; conditions: H&E, AGN 193109 0.2 μM, endo-IWR-1 4 uM
Procedure: (§1) Brightfield imaging was used to determine RPE pigmentation defects, while hematoxylin and eosin (H&E) staining was valuable to inspect gross morphologic alterations of the monolayer. A section of transwell membrane was cut and mounted on a glass slide for brightfield imaging. Pigmentation levels were preserved after ENDO-1-IWR and AGN 193109 treatments as compared to DMSO-treated iPSC-RPE.
(§2) AGN 193109 was used at 0.2 μM and endo-IWR-1 at 4 uM. Both drugs were dissolved in DMSO, so that the final concentration of DMSO was not more than 0.1%. The final concentration of DMSO control was 0.1%. The compounds were added in RPE maturation medium until cells were mature. Gross cell morphology was also analyzed (FIGS. 20B, 20D, and 20F, left image) to detect possible abnormalities. Fine intracellular structures were examined for alterations with transmission electron microscopy (TEM, FIGS. 20B, 20D, and 20F, right image).

acid phosphatase = test: Acid phosphatase activity in lysates of treated RPE cells (p-nitrophenyl phosphate); conditions: compared with DMSO- or endo-IWR-1-treated cells
Procedure: Acid phosphatase has higher expression in the macula (Boulton et al., Br. J. Opthalm. 78:125-9, doi: 10.1136/bjo.78.2.125, 1994). This enzyme has an important role in photoreceptor outer segment digestion. The acid phosphatase activity was determined in cells treated with DMSO, AGN 193109 or endo-IWR-1. RPE cells were lysed in distilled water to extract the enzyme. The lysates were then incubated with p-nitrophenyl phosphate, a phosphatase substrate that turn yellow when dephosphorylated by acid phosphatase. The color of the solution was measured with a spectrophotometer to estimate the enzyme activity.

iPSC-RPE [3] = test: Brightfield imaging of RPE pigmentation; conditions: compared to DMSO-treated iPSC-RPE, AGN 193109 0.2 μM, endo-IWR-1 4 uM
Procedure: as §1, §2

iPSC-RPE [4] = test: Transmission electron microscopy, fine intracellular structures; conditions: TEM, AGN 193109 0.2 μM, endo-IWR-1 4 uM
Procedure: (§3) Finally, transmission electron microscopy (TEM) was used to detect fine morphological alterations, whereas scanning electron microscopy (SEM) was essential to study modifications in apical processes structures. […] In DMSO-treated iPSC-RPE we found both types of apical processes, petal and finger-like.
as §2

iPSC-RPE [5] = test: Trans-epithelial electrical resistance (TER), tight junction integrity; conditions: fully mature iPSC-RPE; for TER resistance: minimum threshold 400 Ωcm^2, DMSO around 1100
Procedure: (§4) Different techniques were used to study RPE morphologic features.
At this point the trans-epithelial electrical resistance (TER) was assayed to confirm the quality of differentiation and examine the effect of drugs on tight junction integrity. The minimum threshold of 400 Ωcm^2 for epithelial resistance per unit area is used to determine good batches of differentiation.
Trans-epithelial electrical resistance (TER) is a measure of the tightness of the monolayer. The tighter the monolayer, the healthier are the cells in the monolayer. A cutoff of 400 ohm*cm^2 was used to exclude cells with low TER. […] The range specifies 90% of the data.

iPSC-RPE [6] = test: Testing different concentrations of AGN 193109 and endo-IWR-1 to reproduce macular (P1), central (P2) and peripheral (P3) cells
Procedure: FIG. 13. Testing different concentrations of AGN 193109 and endo-IWR-1 to reproduce macular (P1), central (P2) and peripheral (P3) cells. A range of concentrations of AGN 193109 and endo-IWR-1 were tested that could be used to reproduce macular, central and peripheral RPE populations (labeled P1, P2 and P3, respectively). Population 1 (P1, macular cells) can be reproduced with […] of AGN 193109. Population 3 (P3, peripheral) can be reproduced with 1 mM-4 mM of endo-IWR-1. A gradient of AGN 193109 and endo-IWR-1 could be used to replicate human RPE population 2 (P2, central)—central RPE cells. In one example, this can be reproduced with 25 nM-50 nM of AGN 193109 and 0.1 mM-0.5 mM of endo-IWR-1. Boxplots relative to DMSO, P1, P2 and P3 are plotted on the left side of the graph as a reference for cell size comparison. Five concentrations were tested for AGN 193109 and endo-IWR-1.

iPSC-RPE [7] = test: Scanning electron microscopy of apical processes; conditions: SEM; for apical processes average transversal length / apical processes average transversal width: transversal section; for type of apical processes: DMSO control shows both petal and finger-like
Procedure: FIG. 11. Defining petal (undulated) and finger-like apical processes. The transversal section of apical processes was measured to precisely define their shape. Petal-like apical processes, obtained by treating RPE cells with AGN 193109, have an average transversal length of 1.68 μm (length min 0.5, max 4 μm) and width of 0.20 μm (width min 0.1, max 1 μm). The petal-like apical processes are also wavy along their length. The width of the undulation ranges from 0.2 to 2 μm. Finger-like apical processes, obtained by treating RPE cells with endo-IWR-1, are cylindrical and have the same average transversal length and width of 0.23 μm (min 0.1, max 1 microns). An example of how measurements of the apical processes was done is shown for each type of apical processed.
as §4, §3

iPSC-RPE cells = test: Phagocytosis test with labelled bovine outer segments, flow cytometry; conditions: 4 hours incubation with outer segments; One-way ANOVA showed no difference
Procedure: iPSC-RPE cells were provided purified bovine outer segment (mostly rod photoreceptors) to phagocytose. The outer segments were labelled with a dye that fluoresce when the outer segments are phagocytosed. RPE cells were incubated for 4 hours with outer segments and then analyzed with flow cytometry to measure outer segment ingestion or put back in the incubator for 20 hours before performing flow cytometry to measure outer segment digestion.

SMILES: Cc1ccc(C2=CCC(C)(C)c3ccc(C#Cc4ccc(C(=O)O)cc4)cc32)cc1 [AGN 193109, 4-[2-[5,6-Dihydro-5,5-dimethyl-8-(4-methylphenyl)-2-naphthalenyl]ethynyl]-benzoic acid]
- single cell transcriptome clustering (iPSC-RPE [1]): cluster separately from each other
- gross cell morphology (iPSC-RPE [2]): no gross morphological alterations were detected; also recorded: nor did they affect gross or fine cell morphology
- acid phosphatase activity (acid phosphatase): higher acid phosphatase activity than DMSO- or endo-IWR-1-treated cells; also recorded: higher acid phosphatase activity
- pigmentation levels (iPSC-RPE [3]): preserved; also recorded: did not alter pigmentation levels
- fine intracellular structures (iPSC-RPE [4]): no fine intracellular structure defects were identified; also recorded: nor did they affect gross or fine cell morphology
- effect on epithelial barrier / tight junction integrity (iPSC-RPE [5]): maintained tight junction integrity
- TER resistance (iPSC-RPE [5]): ~1600 Ωcm^2
- concentration that reproduces population 2 (P2, central) (iPSC-RPE [6]; AGN 193109 combined with endo-IWR-1): 25 to 50 nM
- concentration used to reproduce P1 (macular) (iPSC-RPE [6]; Table 6): 0.1 to 0.2 µM
- apical processes average transversal length (iPSC-RPE [7]): 1.68 μm
- apical processes average transversal width (iPSC-RPE [7]): 0.20 μm
- type of apical processes (iPSC-RPE [7]): enriched RPE cells with petal-like apical processes (with undulation); also recorded: enrich RPE cells with petal-like and finger-like apical processes, respectively

SMILES: O=C(Nc1cccc2cccnc12)c1ccc(N2C(=O)C3C4C=CC(C4)C3C2=O)cc1 (stereo not drawn) [ENDO-1-IWR, 4-(1,3,3a,4,7,7a-Hexahydro-1,3-dioxo-4,7-methano-2H-isoindol-2-yl)-N-8-quinolinyl-Benzamide]
- single cell transcriptome clustering (iPSC-RPE [1]): cluster separately from each other
- gross cell morphology (iPSC-RPE [2]): no gross morphological alterations were detected
- gross cell morphology (iPSC-RPE [2]; listed as endo-IWR-1): nor did they affect gross or fine cell morphology
- pigmentation levels (iPSC-RPE [3]): preserved
- pigmentation levels (iPSC-RPE [3]; listed as Endo-IWR-1): did not alter pigmentation levels
- pigmentation levels (iPSC-RPE [3]; listed as endo-IWR-1): did not alter pigmentation levels
- fine intracellular structures (iPSC-RPE [4]): no fine intracellular structure defects were identified
- fine intracellular structures (iPSC-RPE [4]; listed as endo-IWR-1): nor did they affect gross or fine cell morphology
- effect on epithelial barrier / tight junction integrity (iPSC-RPE [5]): maintained tight junction integrity
- TER resistance (iPSC-RPE [5]): ~1200 Ωcm^2
- outer segment ingestion (iPSC-RPE cells): ingest (peripheral cells) more outer segments
- concentration used to reproduce P3 (peripheral) (iPSC-RPE [6]; Table 6): 1 to 4 µM
- concentration used to reproduce P2 (central) (iPSC-RPE [6]; Table 6, ENDO-1-IWR combined with AGN 193109): 0.1 to 0.2 µM
- apical processes average transversal length (iPSC-RPE [7]): 0.23 μm
- apical processes average transversal width (iPSC-RPE [7]): 0.23 μm
- type of apical processes (iPSC-RPE [7]): enriched uniquely by finger-like apical processes; also recorded: enrich RPE cells with petal-like and finger-like apical processes, respectively; also recorded: enriches these cells with finger-like apical processes
- type of apical processes (iPSC-RPE [7]; listed as Endo-IWR-1): enriched cells with finger-like apical processes
